Where two headings read alike, the source gives them in different places.
Assay: Release rate of acetaldehyde from precursor (acid hydrolysis) in phosphate buffer, UV extinction at 280 nm
Assay type: physicochemical
Conditions: for half-life at 2.5 mg/mL: phosphate buffer; for rate constant k: Precursor + H2O -> Ethanol + Acetaldehyde
Protocol: The release rate of acetaldehyde from the precursor according to formula II with n=1 is measured and compared to 1,2-di[(1′-ethoxy)ethoxy]propane and acetaldehyde diethyl. The measurements are conducted as described in S. M. Oon and D. G. Kubler, “Hydrolysis of Aldal Acetals”, J. Org. Chem., 1982, 47, 1166-1171. A phosphate buffer solution (2 mL) is placed into a quartz cuvette and 5 mg of the respective acetaldehyde precursor is added. The mixture is mixed well and sealed using Parafilm™. The release of acetaldehyde is monitored in a UV-Photometer measuring the increase of the extinction at 280 nm over time. Depending on reaction speed, all 3 to 10 seconds measurements are conducted. […] by the formula C(t)=C0+Cx×(1−e^−kt), wherein C(t) the absorption corresponding to the concentration of acetaldehyde at time t, C0 absorption corresponding to the concentration of acetaldehyde at time t=0, Cx the total amount of acetaldehyde present in the precursor, k the rate constant and t the reaction time. The rate constants are calculated by a numeric approximation program (TABLE CURVE 2D, ©AISN Software Inc.). The half life time λ is calculated from the rate constant using the equation λ=−ln(0.5)/k.

[1] = pH 3.5, read-out: half-life (acetaldehyde release) (converted)
[2] = pH 3.0, read-out: half-life (acetaldehyde release) (converted)

Row | half-life at 2.5 mg/mL [1] | half-life at 2.5 mg/mL [2] | release of acetaldehyde (acidic conditions) | stability (neutral pH conditions) | half-life at 2.5 mg/mL (pH 2.8, calculated from rate constant, read-out: half life time λ (converted)) | half-life at 2.5 mg/mL (pH 3.18, calculated from rate constant, read-out: half life time λ (converted)) | half-life at 2.5 mg/mL (pH 3.81, calculated from rate constant, read-out: half life time λ (converted)) | half-life at 2.5 mg/mL (pH 4.14, calculated from rate constant, read-out: half life time λ (converted)) | Compound | rate constant k (pH 2.8) | rate constant k (pH 3.18) | rate constant k (pH 3.81) | rate constant k (pH 4.14)
1 | 65.1 min | 10.4 min | – | – | – | – | – | – | CCOC(C)OCC(C)OC(C)OCC (stereo not shown) [1,2-di[(1′-ethoxy)ethoyx]propane, 1,2-di[(1′-ethoxy)ethoxy]propane, reference compound] | – | – | – | –
2 | 16.1 min | 5.1 min | rapidly releases acetaldehyde | stable | 1.93 min | 3.35 min | 16.7 min | 30.2 min | CCOC(C)OC(C)OCC (stereo not shown) [1-ethoxy-1-(1-ethoxy-ethoxy)-ethane] | 0.005966 s⁻¹ | 0.003446 s⁻¹ | 0.00069 s⁻¹ | 0.000382 s⁻¹
3 | 41.5 min | 9.65 min | – | – | – | – | – | – | CCOC(C)OCC [acetaldehyde diethyl acetal, reference compound] | – | – | – | –
